Experimental data reported in patent publication US9636336B2, “Aminoester derivatives” (CHIESI FARMACEUTICI S.p.A., priority 2015, dated 2017).
Where two headings read alike, the source gives them in different places.

Assays:
Human recombinant PDE4B2 = Human recombinant PDE4B2 (Homo sapiens (Human), UniProt Q07343); experiment: PDE4B2 HTRF assay; format: biochemical; conditions: read-out: PDE4B2 IC50 activity
Experimental: PDE4B2 activity is detected using the LANCE Ultra cAMP homogeneous time resolved fluorescence resonance energy transfer (TR-FRET) assay from Perkin Elmer. The assay is based on the competition between the europium (Eu) chelate-labeled cAMP tracer and sample cAMP for binding sites on cAMP-specific monoclonal antibodies (mAb) labelled with the ULight™ dye. The assay is carried out in 384-well low volume plates in a volume of 10 μl. Human recombinant PDE4B2 (80 pM) is incubated for 2 h with 3 nM cAMP in buffer containing 1×HBSS, 5 mM HEPES, 3 mM MgCl2, 0.1% BSA, pH 7.4 with or without test compounds. The enzymatic reactions are efficiently stopped by the addition of 500 μM IBMX present in the combined Stop/Detection buffer containing europium (Eu) chelate-labeled cAMP tracer and cAMP-specific monoclonal antibodies (mAb) labelled with the ULight™ dye. […] IC50 values are determined from competition curves using a non-linear curve fitting program.

[1] = molecular target: Human M3 receptor membranes (Homo sapiens (Human), UniProt P20309); experiment: M3 Receptor radioligand binding assay; conditions: M3 Receptor radioligand binding assay; read-out: M3 IC50 activity
Experimental: M3 Receptor Radioligand Binding Assay:
The assay is carried out in 96-well polypropylene plates in a volume of 250 μl. […] The final assay concentration of DMSO is 0.5% (v/v). The plates are sealed and incubated for 2 h at room temperature on an orbital shaker (slow speed). Membranes are harvested onto 96-well unifilter GF/C filter plates pre-treated with 0.5% polyethyleneimine (v/v), using a filter manifold, washed four times with 200 μl of assay buffer. The plates are dried before addition of 50 μl of microscint-0, sealed then read in a Trilux Microbeta scintillation counter. IC50 values are determined from competition curves using a non-linear curve fitting program. Ki values are calculated from IC50 values by the Cheng and Prusoff equation.

Human M3 receptor membranes, sequence (P20309 whole entry): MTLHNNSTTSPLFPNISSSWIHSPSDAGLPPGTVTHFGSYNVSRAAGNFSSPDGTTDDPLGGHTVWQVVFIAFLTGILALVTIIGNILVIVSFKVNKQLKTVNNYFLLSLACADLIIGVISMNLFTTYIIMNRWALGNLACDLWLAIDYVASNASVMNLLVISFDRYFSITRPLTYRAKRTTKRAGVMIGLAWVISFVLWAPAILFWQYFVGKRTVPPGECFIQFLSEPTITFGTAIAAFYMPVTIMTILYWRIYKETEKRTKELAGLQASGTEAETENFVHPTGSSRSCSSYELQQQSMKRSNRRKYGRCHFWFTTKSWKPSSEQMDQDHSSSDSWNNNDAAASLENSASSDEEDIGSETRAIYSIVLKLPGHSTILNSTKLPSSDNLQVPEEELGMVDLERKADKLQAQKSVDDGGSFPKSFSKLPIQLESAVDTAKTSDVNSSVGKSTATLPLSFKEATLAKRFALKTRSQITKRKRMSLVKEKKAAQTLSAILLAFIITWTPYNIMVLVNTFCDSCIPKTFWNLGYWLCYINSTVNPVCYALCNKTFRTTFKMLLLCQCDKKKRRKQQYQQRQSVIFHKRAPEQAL
Human recombinant PDE4B2, sequence (Q07343 other isoform, or with tags, fused parts or gaps): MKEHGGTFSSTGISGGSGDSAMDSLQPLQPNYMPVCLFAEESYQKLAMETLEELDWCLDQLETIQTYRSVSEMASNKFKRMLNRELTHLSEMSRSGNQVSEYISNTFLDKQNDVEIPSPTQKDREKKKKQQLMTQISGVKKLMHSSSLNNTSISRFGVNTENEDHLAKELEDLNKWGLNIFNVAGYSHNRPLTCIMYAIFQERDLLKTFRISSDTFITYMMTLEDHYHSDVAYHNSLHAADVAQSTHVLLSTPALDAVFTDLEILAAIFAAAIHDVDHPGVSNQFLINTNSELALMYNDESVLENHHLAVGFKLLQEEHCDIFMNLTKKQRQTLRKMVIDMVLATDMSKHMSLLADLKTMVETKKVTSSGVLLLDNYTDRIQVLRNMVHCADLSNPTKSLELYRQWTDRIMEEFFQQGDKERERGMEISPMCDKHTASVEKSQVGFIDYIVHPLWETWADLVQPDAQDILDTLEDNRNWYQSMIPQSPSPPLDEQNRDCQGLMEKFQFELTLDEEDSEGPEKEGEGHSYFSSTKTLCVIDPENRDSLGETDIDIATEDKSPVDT

Row | IC50 (Human recombinant PDE4B2; PDE4B2 HTRF assay) | IC50 [1] | Compound | IC50 (Human recombinant PDE4B2)
1 | 1 to 10 nM | – | COc1ccc([C@H](Cc2c(Cl)c[n+]([O-])cc2Cl)OC(=O)c2ccc(CNC(C(=O)OCC3(F)CCN(C)CC3)c3ccccc3)s2)cc1OC (stereo partly drawn) [Example 3, [(1S)-2-(3,5-dichloro-1-oxido-pyridin-1-ium-4-yl)-1-(3,4-dimethoxyphenyl)ethyl] 5-[[[2-[(4-fluoro-1-methyl-4-piperidyl)methoxy]-2-oxo-1-phenyl-ethyl]amino]methyl]thiophene-2-carboxylate] | –
2 | 1 to 10 nM | 10 to 100 nM | COc1ccc([C@H](Cc2c(Cl)c[n+]([O-])cc2Cl)OC(=O)c2ccc(CNC(C(=O)OC[C@@H]3CN(C)CCN3C)c3ccccc3)s2)cc1OC (stereo partly drawn) [Example 32, [(1S)-2-(3,5-dichloro-1-oxido-pyridin-1-ium-4-yl)-1-(3,4-dimethoxyphenyl)ethyl] 5-[[[2-[[(2S)-1,4-dimethylpiperazin-2-yl]methoxy]-2-oxo-1-phenyl-ethyl]amino]methyl]thiophene-2-carboxylate] | –
3 | – | 10 to 100 nM | COc1ccc([C@H](Cc2c(Cl)c[n+]([O-])cc2Cl)OC(=O)c2ccc(CNC(C(=O)OC[C@H]3CCCCN3C)c3ccccc3)s2)cc1OC (stereo partly drawn) [Example 30, [(1S)-2-(3,5-dichloro-1-oxido-pyridin-1-ium-4-yl)-1-(3,4-dimethoxyphenyl)ethyl] 5-[[[2-[[(2R)-1-methyl-2-piperidyl]methoxy]-2-oxo-1-phenyl-ethyl]amino]methyl]thiophene-2-carboxylate] | –
4 | 1 to 10 nM | 1 to 10 nM | COCCOc1cc([C@H](Cc2c(Cl)c[n+]([O-])cc2Cl)OC(=O)c2ccc(CNC(C(=O)OCC3CCN(C)CC3)c3ccccc3)s2)ccc1OC(F)F (stereo partly drawn) [Example 113, [(1S)-2-(3,5-dichloro-1-oxido-pyridin-1-ium-4-yl)-1-[4-(difluoromethoxy)-3-(2-methoxyethoxy)phenyl]ethyl] 5-[[[2-[(1-methyl-4-piperidyl)methoxy]-2-oxo-1-phenyl-ethyl]amino]methyl]thiophene-2-carboxylate] | –
5 | 1 to 10 nM | 10 to 100 nM | COc1ccc([C@H](Cc2c(Cl)c[n+]([O-])cc2Cl)OC(=O)c2ccc(CNC(C(=O)OCC3(C)CCN(C)CC3)c3ccccc3)s2)cc1OC (mixture of isomers) [Example 2, [(1S)-2-(3,5-dichloro-1-oxido-pyridin-1-ium-4-yl)-1-(3,4-dimethoxyphenyl)ethyl]5-[[[2-[(1,4-dimethyl-4-piperidyl)methoxy]-2-oxo-1-phenyl-ethyl]amino]methyl]thiophene-2-carboxylate] | –
6 | 1 to 10 nM | 10 to 100 nM | COc1ccc([C@H](Cc2c(Cl)c[n+]([O-])cc2Cl)OC(=O)c2ccc(CNC(C(=O)OCC3CCN(C(C)C)CC3)c3ccccc3)s2)cc1OC (single isomer, unassigned) [Example 42] | –
7 | 1 to 10 nM | 1 to 10 nM | COc1ccc([C@H](Cc2c(Cl)c[n+]([O-])cc2Cl)OC(=O)c2ccc(CNC(C(=O)OCC3CN(C)C3)c3ccccc3)s2)cc1OC (stereo partly drawn) [Example 25, [(1S)-2-(3,5-dichloro-1-oxido-pyridin-1-ium-4-yl)-1-(3,4-dimethoxyphenyl)ethyl] 5-[[[2-[(1-methylazetidin-3-yl)methoxy]-2-oxo-1-phenyl-ethyl]amino]methyl]thiophene-2-carboxylate] | –
8 | 1 to 10 nM | 10 to 100 nM | COc1ccc([C@H](Cc2c(Cl)c[n+]([O-])cc2Cl)OC(=O)c2ccc(CNCC(C(=O)OCC3CCN(C)CC3)c3ccccc3)s2)cc1OC (stereo partly drawn) [Example 7, [(1S)-2-(3,5-dichloro-1-oxido-pyridin-1-ium-4-yl)-1-(3,4-dimethoxyphenyl)ethyl]5-[[[3-[(1-methyl-4-piperidyl)methoxy]-3-oxo-2-phenyl-propyl]amino]methyl]thiophene-2-carboxylate] | –
9 | – | 1 to 10 nM | COc1ccc([C@H](Cc2c(Cl)c[n+]([O-])cc2Cl)OC(=O)c2ccc(CNC(C(=O)OCC3CCN(C)CC3)c3cccc(O)c3)s2)cc1OC (stereo partly drawn) [Example 41, [(1S)-2-(3,5-dichloro-1-oxido-pyridin-1-ium-4-yl)-1-(3,4-dimethoxyphenyl)ethyl]5-[[[1-(3-hydroxyphenyl)-2-[(1-methyl-4-piperidyl)methoxy]-2-oxo-ethyl]amino]methyl]thiophene-2-carboxylate] | –
10 | 1 to 10 nM | – | COc1ccc([C@H](Cc2c(Cl)c[n+]([O-])cc2Cl)OC(=O)c2ccc(CNC(C(=O)OCCN3CCCC3)c3ccccc3)s2)cc1OC (stereo partly drawn) [Example 21, [(1S)-2-(3,5-dichloro-1-oxido-pyridin-1-ium-4-yl)-1-(3,4-dimethoxyphenyl)ethyl] 5-[[[2-oxo-1-phenyl-2-(2-pyrrolidin-1-ylethoxy)ethyl]amino]methyl]thiophene-2-carboxylate] | –
11 | – | 1 to 10 nM | COc1ccc([C@H](Cc2c(Cl)c[n+]([O-])cc2Cl)OC(=O)c2ccc(CNC(C)(C(=O)OCC3CCN(C)CC3)c3ccccc3)s2)cc1OC (stereo partly drawn) [Example 34, [(1S)-2-(3,5-dichloro-1-oxido-pyridin-1-ium-4-yl)-1-(3,4-dimethoxyphenyl)ethyl] 5-[[[1-methyl-2-[(1-methyl-4-piperidyl)methoxy]-2-oxo-1-phenyl-ethyl]amino]methyl]thiophene-2-carboxylate] | –
12 | – | 10 to 100 nM | COc1ccc(C(Cc2c(Cl)c[n+]([O-])cc2Cl)OC(=O)c2ccc(CNC(C(=O)OCC3CCN(C)CC3)c3cccc(O)c3)s2)cc1OCC1CC1 (centres unmarked) [Example 48, [1-[3-(cyclopropylmethoxy)-4-methoxy-phenyl]-2-(3,5-dichloro-1-oxido-pyridin-1-ium-4-yl)ethyl]5-[[[1-(3-hydroxyphenyl)-2-[(1-methyl-4-piperidyl)methoxy]-2-oxo-ethyl]amino]methyl]thiophene-2-carboxylate] | –
13 | – | 1 to 10 nM | COc1ccc([C@H](Cc2c(Cl)c[n+]([O-])cc2Cl)OC(=O)c2ccc(CNC(C(=O)OC[C@H]3CCCN(C)C3)c3ccccc3)s2)cc1OC (stereo partly drawn) [Example 26, [(1S)-2-(3,5-dichloro-1-oxido-pyridin-1-ium-4-yl)-1-(3,4-dimethoxyphenyl)ethyl] 5-[[[2-[[(3S)-1-methyl-3-piperidyl]methoxy]-2-oxo-1-phenyl-ethyl]amino]methyl]thiophene-2-carboxylate] | –

Row | Compound | IC50 (Human recombinant PDE4B2; PDE4B2 HTRF assay) | IC50 [1] | IC50 (Human recombinant PDE4B2)
14 | COc1ccc(C(Cc2c(Cl)c[n+]([O-])cc2Cl)OC(=O)c2ccc(CNC(C(=O)OCC3CCN(C)CC3)c3ccccc3)s2)cc1OC1CCCC1 (centres unmarked) [Example 6, [1-[3-(cyclopentoxy)-4-methoxy-phenyl]-2-(3,5-dichloro-1-oxido-pyridin-1-ium-4-yl)ethyl] 5-[[[2-[(1-methyl-4-piperidyl)methoxy]-2-oxo-1-phenyl-ethyl]amino]methyl]thiophene-2-carboxylate] | – | 1 to 10 nM | –
15 | COc1ccc([C@H](Cc2c(Cl)c[n+]([O-])cc2Cl)OC(=O)c2ccc(CNC(C(=O)OC[C@@H]3CCCN(C)C3)c3ccccc3)s2)cc1OC (stereo partly drawn) [Example 49, [(1S)-2-(3,5-dichloro-1-oxido-pyridin-1-ium-4-yl)-1-(3,4-dimethoxyphenyl)ethyl]5-[[[2-[[(3R)-1-methyl-3-piperidyl]methoxy]-2-oxo-1-phenyl-ethyl]amino]methyl]thiophene-2-carboxylate] | 1 to 10 nM | 10 to 100 nM | –
16 | COc1ccc([C@H](Cc2c(Cl)c[n+]([O-])cc2Cl)OC(=O)c2ccc(CNC(C(=O)OCC3CCN(C)CC3)C3CCCCC3)s2)cc1OC (stereo partly drawn) [Example 9, [(1S)-2-(3,5-dichloro-1-oxido-pyridin-1-ium-4-yl)-1-(3,4-dimethoxyphenyl)ethyl]5-[[[1-cyclohexyl-2-[(1-methyl-4-piperidyl)methoxy]-2-oxo-ethyl]amino]methyl]thiophene-2-carboxylate] | – | 10 to 100 nM | 1 to 10 nM
17 | COc1ccc([C@H](Cc2c(Cl)c[n+]([O-])cc2Cl)OC(=O)c2ccc(CNC(C(=O)OCC3CCN(C)CC3)c3ccccc3OC)s2)cc1OC (some centres unmarked) [Example 118] | < 1 nM | – | –
18 | CCN1CCC(COC(=O)C(NCc2ccc(C(=O)O[C@@H](Cc3c(Cl)c[n+]([O-])cc3Cl)c3ccc(OC)c(OC)c3)s2)c2ccccc2)CC1 (some centres unmarked) [Example 19] | < 1 nM | – | –
19 | COc1ccc([C@H](Cc2c(Cl)c[n+]([O-])cc2Cl)OC(=O)c2ccc(CNC(CO)(C(=O)OC[C@@H]3CCN(C)C3)c3ccccc3)s2)cc1OC (stereo partly drawn) [Example 116, [(1S)-2-(3,5-dichloro-1-oxido-pyridin-1-ium-4-yl)-1-(3,4-dimethoxyphenyl)ethyl] 5-[[[1-(hydroxymethyl)-2-[[(3R)-1-methylpyrrolidin-3-yl]methoxy]-2-oxo-1-phenyl-ethyl]amino]methyl]thiophene-2-carboxylate] | 1 to 10 nM | – | –
20 | CCOc1cc(C(Cc2c(Cl)c[n+]([O-])cc2Cl)OC(=O)c2ccc(CNC(C(=O)OCC3CCN(C)CC3)c3cccc(O)c3)s2)ccc1OC (centres unmarked) [Example 120] | < 1 nM | – | –
21 | COc1ccc([C@H](Cc2c(Cl)c[n+]([O-])cc2Cl)OC(=O)c2ccc(CNC(C(=O)OC[C@@H]3CCCN(C)C3)c3ccccc3)s2)cc1OC (stereo partly drawn) [Example 50, [(1S)-2-(3,5-dichloro-1-oxido-pyridin-1-ium-4-yl)-1-(3,4-dimethoxyphenyl)ethyl]5-[[[2-[[(3R)-1-methyl-3-piperidyl]methoxy]-2-oxo-1-phenyl-ethyl]amino]methyl]thiophene-2-carboxylate] | – | 1 to 10 nM | –
